Each structure is given as a SMILES string. Counter-ions that a name gives are not always drawn.

The text below walks through data of patent publication US20040142960A1 (priority 2001, published 2004).

One assay deals with bone marrow cells. To be noted: concentrations at which the adrenergic antagonists are effective; cited from earlier work.
Assay [1] has as its system HSV-1. To be noted: cited from earlier work.
The nature of assay [2]: antibody response in treated subjects. The assay is classed as in vivo.
For assay [3], the system named is HSV-1. Put plainly: systemic or local treatment, HSV-1 reactivation from latency. The assay is classed as in vivo.
In the next assay the test system is Langerhans cells. Conditions: administered intraperitoneally; cited from earlier work.

Consider `Cc1ccc(N(CC2=NCCN2)c2cccc(O)c2)cc1` [phentolamine], for which the “relative order of potency in counteracting norepinephrine” value with bone marrow cells is on record as “prazosin>phentolamine>yohimbine”.
Turning to `COc1cc2nc(N3CCN(C(=O)c4ccco4)CC3)nc(N)c2cc1OC` [prazosin], in the assay with bone marrow cells, the “relative order of potency in counteracting norepinephrine” value is on record as “prazosin>phentolamine>yohimbine”.
For `COC(=O)[C@@H]1[C@H]2C[C@H]3c4[nH]c5ccccc5c4CCN3C[C@@H]2CC[C@@H]1O` [yohimbine hydrochloride], the “activity on HSV-1” value in the assay with HSV-1 [1] was “inactive”.
In the case of `COC(=O)[C@@H]1[C@H]2C[C@H]3c4[nH]c5ccccc5c4CCN3C[C@@H]2CC[C@@H]1O` [yohimbine, (16α,17α)-hydroxyyohimban-16-carboxylic acid methyl ester], the antibody response result in assay [2] was “stimulates and enhances the antibody response”. In addition, in the assay on HSV-1 [3] (in vivo), the “inflammation during HSV-1 reactivation” value is on record as “reduced inflammation”. Besides, in the assay on HSV-1 [3] (systemic or local treatment), the HSV-1 reactivation frequency entry is “reduces the HSV-1 reactivation frequency” and the local norepinephrine concentration result is listed as “local increase of norepinephrine concentration”. In the assay on Langerhans cells, the Langerhans cells migration result is recorded as “enhances the Langheran's cells migration”.
